Tested on: 817829-284-R-J1-PDC multi-cell spheroid viability
Experiment: Anticancer human tumor 817829-284-R-J1-PDC patient-derived colon adenocarcinoma cell line growth inhibition [PI3K]
Conditions: for IC50: curve of first compound; for viability, T/C: stronger effect = lower value
Description: Combinatorial screen of targeted agents with the PI3K inhibitors inavolisib, alpelisib, duvelisib, and copanlisib in multi-cell type tumor spheroids
A high-throughput screen of multi-cell type tumor spheroids was designed to identify active combinations of targeted small molecules and PI3K pathway inhibitors. Complex spheroids include a stromal component modeled by human endothelial cells (HUVEC) and fibroblasts modeled by human mesenchymal stem cells (MSCs). The concentration ranges selected for each drug and investigational agent were based upon clinically achievable concentrations if the clinical Cmax of the agent was known.
Compounds. The drugs and investigational agents: inavolisib (NSC800729), alpelisib (NSC765974), duvelisib (NSC772469), copanlisib (NSC816437), ipatasertib (NSC767898), afuresertib (NSC778305), talazoparib (NSC767125), sapanisertib (NSC764658), selumetinib (NSC741078), tovorafenib (DAY101, NSC766906), vemurafenib (NSC761431), ravoxertinib (NSC781343), sotorasib (NSC818433), MRTX1133 (NSC 836407), abemaciclib (NSC 768073), palbociclib (NSC758247), venetoclax (NSC 766270), SY5609 (NSC837396), enzalutamide (NSC755605), and darolutamide (NSC825331), were obtained from the National Cancer Institute (NCI) Developmental Therapeutics Program Chemical Repository. The FDA-approved anticancer drug set is available from the NCI Developmental Therapeutics Program. […] The stock solutions were prepared in dimethyl sulfoxide (DMSO, Sigma-Aldrich, St. Louis, MO, cat. D2650) at 800-fold the tested concentration and stored at -70 degrees C prior to their use. All drugs and investigational agents were tested over a range starting from a high concentration at or near the clinical Cmax and decreasing in half-log increments. If the clinical Cmax for an agent had not been determined, the highest concentration tested was 10 microM.
Cell Culture. All cells were maintained in an incubator at 37 degrees C and 5% CO2 with 95% humidity. The PDC lines were cultured according to standard operating procedures established by the NCI PDMR (https://pdmr.cancer.gov/sops/default.htm). All PDCs were thawed and cultured in Matrigel-coated flasks prepared with a working solution of 1X Ham's F-12 nutrient mix, without supplementation (Invitrogen, Waltham, MA, cat. 11765054), 100 U/mL penicillin-streptomycin (Invitrogen, cat. 15140122), and 2.5% Matrigel (Corning Inc., Corning, NY, cat. 354248) for the first three passages. The 354836-022-R-J1-PDC, 475296-252-R-J1-PDC, and 997726-040-R-J2-PDC lines were cultured in 6A media, which includes advanced DMEM/F-12 (Thermo Fisher Scientific, cat. 12634028), 10 mM HEPES (Thermo Fisher Scientific, cat. 15630080), 1X GlutaMAX supplement (Thermo Fisher Scientific, cat. 35050061), 0.1 mg/mL primocin (InvivoGen, San Diego, CA, cat. ant-pm-2), 10% defined fetal bovine serum, heat inactivated (HyClone Laboratories Inc., Logan, UT, cat. SH30070.03HI), 50% L-WRN conditioned media (ATCC, cat. CRL-3276), 1.25 mM N-Acetyl-L-cysteine (Sigma-Aldrich, cat. A9165), 10 mM nicotinamide (Sigma-Aldrich, cat. N0636), 1X B-27 supplement (Thermo Fisher Scientific, cat. 17504044), 1X N-2 supplement (Thermo Fisher Scientific, cat. 17502048), and 10 microM Y-27632 dihydrochloride (Tocris Bioscience, Bristol, United Kingdom, cat. 1254). The 624824-186-R-J2-PDC line was cultured in 6C/Colon 1B media, which includes all 6A media components plus 50 ng/mL human EGF recombinant protein (Thermo Fisher Scientific, cat. PHG0311). […]

[1] = second compound 0.00316 µM, first compound 0.0316 µM
[2] = second compound 0.00316 µM, first compound 0.1 µM
[3] = second compound 0.00316 µM, first compound 0.316 µM
[4] = second compound 0.00316 µM, first compound 1 µM
[5] = second compound 0.00316 µM, first compound 3.16 µM
[6] = second compound 0.00316 µM, first compound 10 µM
[7] = second compound 0.01 µM, first compound 0.0316 µM
[8] = second compound 0.01 µM, first compound 0.1 µM
[9] = second compound 0.01 µM, first compound 0.316 µM
[10] = second compound 0.01 µM, first compound 1 µM
[11] = second compound 0.01 µM, first compound 3.16 µM
[12] = second compound 0.01 µM, first compound 10 µM
[13] = second compound 0.0316 µM, first compound 0.0316 µM
[14] = second compound 0.0316 µM, first compound 0.1 µM
[15] = second compound 0.0316 µM, first compound 0.316 µM
[16] = second compound 0.0316 µM, first compound 1 µM
[17] = second compound 0.0316 µM, first compound 3.16 µM
[18] = second compound 0.0316 µM, first compound 10 µM
[19] = second compound 0.1 µM, first compound 0.0316 µM
[20] = second compound 0.1 µM, first compound 0.1 µM
[21] = second compound 0.1 µM, first compound 0.316 µM
[22] = second compound 0.1 µM, first compound 1 µM
[23] = second compound 0.1 µM, first compound 3.16 µM
[24] = second compound 0.1 µM, first compound 10 µM
[25] = second compound 0.316 µM, first compound 0.0316 µM
[26] = second compound 0.316 µM, first compound 0.1 µM
[27] = second compound 0.316 µM, first compound 0.316 µM
[28] = second compound 0.316 µM, first compound 1 µM
[29] = second compound 0.316 µM, first compound 3.16 µM
[30] = second compound 0.316 µM, first compound 10 µM
[31] = second compound 1 µM, first compound 0.0316 µM
[32] = second compound 1 µM, first compound 0.1 µM
[33] = second compound 1 µM, first compound 0.316 µM
[34] = second compound 1 µM, first compound 1 µM
[35] = second compound 1 µM, first compound 3.16 µM
[36] = second compound 1 µM, first compound 10 µM
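Note: spheroids exposed to agents for seven days before readout.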
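Throughout, for viability, T/C: percent of vehicle DMSO control viability which is 100%.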

For `CC1(C)CCC(Nc2ncc(C(F)(F)F)c(-c3c[nH]c4c(P(C)(C)=O)c(C#N)ccc34)n2)CN1` (stereo unspecified) + CC(Nc1ccc2c(c1)OCCn1cc(N3C(=O)OCC3C(F)F)nc1-2)C(N)=O, the IC50 (second compound 0.00316 µM) was less than 31.6 nM, the IC50 (second compound 0.01 µM) was less than 31.6 nM and the IC50 (second compound 0.0316 µM) was less than 31.6 nM. For the same molecule, the IC50 (second compound 0.1 µM) was less than 31.6 nM, the IC50 (second compound 0.316 µM) was less than 31.6 nM and the IC50 (second compound 1 µM) was less than 31.6 nM. For the same molecule, the viability, T/C [1] was 27.5%, the viability, T/C [2] was 24.9% and the viability, T/C [3] was 36.7%. It also gave a viability, T/C [4] of 28.7%, a viability, T/C [5] of 30% and a viability, T/C [6] of 0.96%. It also gave a viability, T/C [7] of 26.9%, a viability, T/C [8] of 25.7% and a viability, T/C [9] of 25.2%. It also gave a viability, T/C [10] of 33.6%, a viability, T/C [11] of 26.4% and a viability, T/C [12] of 1.03%. It also gave a viability, T/C [13] of 24.1%, a viability, T/C [14] of 28.1% and a viability, T/C [15] of 25.9%. The viability, T/C [16] was 32%, the viability, T/C [17] was 24.6% and the viability, T/C [18] was 0.85%. The viability, T/C [19] was 25.2%, the viability, T/C [20] was 28.4% and the viability, T/C [21] was 32.1%. It also gave a viability, T/C [22] of 27.7%, a viability, T/C [23] of 29.2% and a viability, T/C [24] of 1.66%. For the same molecule, the viability, T/C [25] was 23.4%, the viability, T/C [26] was 28.7% and the viability, T/C [27] was 26%. The viability, T/C [28] was 22.8%, the viability, T/C [29] was 27.9% and the viability, T/C [30] was 1.09%. The viability, T/C [31] was 21.7%, the viability, T/C [32] was 24.1% and the viability, T/C [33] was 25.8%. For the same molecule, the viability, T/C [34] was 26.2%, the viability, T/C [35] was 26.6% and the viability, T/C [36] was 1.56%.

`C=CC(=O)N1CCN(c2nc(=O)n(-c3c(C)ccnc3C(C)C)c3nc(-c4c(O)cccc4F)c(F)cc23)C(C)C1` (stereo unspecified) + CC(Nc1ccc2c(c1)OCCn1cc(N3C(=O)OCC3C(F)F)nc1-2)C(N)=O showed an IC50 (second compound 0.00316 µM) greater than 10000 nM, an IC50 (second compound 0.01 µM) greater than 10000 nM and an IC50 (second compound 0.0316 µM) greater than 10000 nM. It also gave an IC50 (second compound 0.1 µM) of 6650 nM, an IC50 (second compound 0.316 µM) greater than 10000 nM and an IC50 (second compound 1 µM) greater than 10000 nM. It also gave a viability, T/C [1] of 91.4%, a viability, T/C [2] of 93.3% and a viability, T/C [3] of 82.9%. For the same molecule, the viability, T/C [4] was 71.9%, the viability, T/C [5] was 77.9% and the viability, T/C [6] was 55.4%. It also gave a viability, T/C [7] of 62.7%, a viability, T/C [8] of 57.7% and a viability, T/C [9] of 83.9%. It also gave a viability, T/C [10] of 78.6%, a viability, T/C [11] of 84.8% and a viability, T/C [12] of 38.9%. It also gave a viability, T/C [13] of 53.8%, a viability, T/C [14] of 112% and a viability, T/C [15] of 108%. For the same molecule, the viability, T/C [16] was 51.1%, the viability, T/C [17] was 64% and the viability, T/C [18] was 73.7%. For the same molecule, the viability, T/C [19] was 64.7%, the viability, T/C [20] was 92.2% and the viability, T/C [21] was 79.2%. For the same molecule, the viability, T/C [22] was 84.2%, the viability, T/C [23] was 78.9% and the viability, T/C [24] was 34.1%. For the same molecule, the viability, T/C [25] was 60.1%, the viability, T/C [26] was 75.9% and the viability, T/C [27] was 67.4%. The viability, T/C [28] was 52.6%, the viability, T/C [29] was 68% and the viability, T/C [30] was 44.6%. The viability, T/C [31] was 61.6%, the viability, T/C [32] was 53.9% and the viability, T/C [33] was 79.3%. It also gave a viability, T/C [34] of 57.3%, a viability, T/C [35] of 62.7% and a viability, T/C [36] of 53.5%.

Work on `CC(C)n1nc(-c2ccc3oc(N)nc3c2)c2c(N)ncnc21` + CC(Nc1ccc2c(c1)OCCn1cc(N3C(=O)OCC3C(F)F)nc1-2)C(N)=O yielded an IC50 (second compound 0.00316 µM) of 6.7 nM, an IC50 (second compound 0.01 µM) of 22.8 nM and an IC50 (second compound 0.0316 µM) of 8.64 nM. The IC50 (second compound 0.1 µM) was 4.55 nM, the IC50 (second compound 0.316 µM) was 4.35 nM and the IC50 (second compound 1 µM) was less than 0.316 nM. The viability, T/C (second compound 0.00316 µM, first compound 0.000316 µM) was 112%, the viability, T/C (second compound 0.00316 µM, first compound 0.001 µM) was 51.6% and the viability, T/C (second compound 0.00316 µM, first compound 0.00316 µM) was 65.3%. It also gave a viability, T/C (second compound 0.00316 µM, first compound 0.01 µM) of 60.2%, a viability, T/C [1] of 27.9% and a viability, T/C [2] of 16.2%. For the same molecule, the viability, T/C (second compound 0.01 µM, first compound 0.000316 µM) was 60.2%, the viability, T/C (second compound 0.01 µM, first compound 0.001 µM) was 63.8% and the viability, T/C (second compound 0.01 µM, first compound 0.00316 µM) was 69.5%. For the same molecule, the viability, T/C (second compound 0.01 µM, first compound 0.01 µM) was 68.1%, the viability, T/C [7] was 43.9% and the viability, T/C [8] was 14.7%. It also gave a viability, T/C (second compound 0.0316 µM, first compound 0.000316 µM) of 114%, a viability, T/C (second compound 0.0316 µM, first compound 0.001 µM) of 73.1% and a viability, T/C (second compound 0.0316 µM, first compound 0.00316 µM) of 73.9%. It also gave a viability, T/C (second compound 0.0316 µM, first compound 0.01 µM) of 50.3%, a viability, T/C [13] of 28.1% and a viability, T/C [14] of 12.8%. For the same molecule, the viability, T/C (second compound 0.1 µM, first compound 0.000316 µM) was 59.7%, the viability, T/C (second compound 0.1 µM, first compound 0.001 µM) was 38.7% and the viability, T/C (second compound 0.1 µM, first compound 0.00316 µM) was 76.4%. The viability, T/C (second compound 0.1 µM, first compound 0.01 µM) was 32%, the viability, T/C [19] was 32.1% and the viability, T/C [20] was 13.8%. The viability, T/C (second compound 0.316 µM, first compound 0.000316 µM) was 53.7%, the viability, T/C (second compound 0.316 µM, first compound 0.001 µM) was 68.9% and the viability, T/C (second compound 0.316 µM, first compound 0.00316 µM) was 48.7%. The viability, T/C (second compound 0.316 µM, first compound 0.01 µM) was 41.7%, the viability, T/C [25] was 22.2% and the viability, T/C [26] was 13.8%. The viability, T/C (second compound 1 µM, first compound 0.000316 µM) was 56.8%, the viability, T/C (second compound 1 µM, first compound 0.001 µM) was 30.8% and the viability, T/C (second compound 1 µM, first compound 0.00316 µM) was 38.3%. It also gave a viability, T/C (second compound 1 µM, first compound 0.01 µM) of 27.3%, a viability, T/C [31] of 79.8% and a viability, T/C [32] of 18.4%.
